Measurements from ChEMBL document CHEMBL1240408, “Turning enzymes ON with small molecules” (Nat Chem Biol, 2010).
Values belong to the compound of their own block, whether it stands above or below them.

Experiments:
Rattus norvegicus [1] = species on record: Rattus norvegicus; experiment: (§1) Activation of rat liver AMPK assessed as concentration required to induce 50 % activity
Rattus norvegicus [2] = species on record: Rattus norvegicus; experiment: Activation of rat liver AMPK relative to basal activity level; assay type: tissue-based
Rattus norvegicus [3] = species on record: Rattus norvegicus; experiment: Activation of rat liver AMPK alpha subunit assessed as concentration required to induce 50 % activity
Caspase-3 (Homo sapiens) = biological target: T1, Caspase-3 (Homo sapiens) (UniProt P42574); experiment: Induction of autoactivation of procaspase-3 relative to control
T1 sequence (whole entry): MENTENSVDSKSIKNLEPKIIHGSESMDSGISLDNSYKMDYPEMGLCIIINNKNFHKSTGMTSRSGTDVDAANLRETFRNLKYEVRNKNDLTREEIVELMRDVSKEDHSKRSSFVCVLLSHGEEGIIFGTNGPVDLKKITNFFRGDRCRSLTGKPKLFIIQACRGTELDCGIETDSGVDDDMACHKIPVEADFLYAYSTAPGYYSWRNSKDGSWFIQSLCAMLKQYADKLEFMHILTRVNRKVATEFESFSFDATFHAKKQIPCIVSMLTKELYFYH

[4] = as §1

Activity (Rattus norvegicus [1]): 0.8 µM
Structure (SMILES): N#Cc1c(O)c2c(-c3ccc(-c4ccccc4O)cc3)csc2[nH]c1=O

Activity (Rattus norvegicus [1]): 0.3 µM
Activity (Rattus norvegicus [3]): 8 µM
Structure (SMILES): Cc1cc(-c2ccc(/C=C3\S/C(=N\c4ccc(Cl)c(C(=O)O)c4)NC3=O)o2)c([N+](=O)[O-])cc1C
fold change (FC) (Rattus norvegicus [2]): 1.5

fold change (FC) (Caspase-3 (Homo sapiens)): 3
Structure (SMILES): C=CCc1cccc(/C=N/NC(=O)CN2CCN(Cc3ccccc3)CC2)c1O

Structure (SMILES): Nc1ncnc2c1ncn2[C@@H]1O[C@H](COP(=O)(O)O)[C@@H](O)[C@H]1O [ADENOSINE PHOSPHATE]
AC50 [4]: 56 µM
